Values quoted from earlier work as cited in patent publication US20070264289A1, “COMPOSITIONS AND METHODS OF ADMINISTERING DOXEPIN TO MUCOSAL TISSUE” (EOT Research Inc., priority 2003, published 2007).
Structures can show the parent of a compound that is named as a salt.

Tests used:
[1] = systemic doxepin; drowsiness in a significant number of patients at this range
[2] = metabolite formed in the liver after systemic absorption of doxepin

Compound	target plasma therapeutic range for treatment of depression [1] [ng/mL]	half-life [2] [h]
CN(C)CCC=C1c2ccccc2COc2ccccc21 [doxepin, N,N-dimethyldibenz(b,e)oxepin-propylamine hydrochloride]	30 to 150	
CNCCC=C1c2ccccc2COc2ccccc21 [Desmethyldoxepin, desmethyldoxepin]		28 to 52
